experiment: Surface tension of surfactant added at 0.5% by mass to CTFA (plate method, 25° C.); format: physicochemical; details: neat CTFA
Description: In the present disclosure, the “polymerizable surfactant” refers to a surfactant having a polymerizable group. In the present disclosure, the “surfactant” refers to a compound in which, in a case of adding the compound in an addition amount of 0.5% by mass with respect to cyclic trimethylolpropane formal acrylate (hereinafter, referred to as “CTFA”), a surface tension is reduced 1 mN/m or more. The surface tension is measured by a plate method at 25° C. using a surface tension meter, and for example, can be measured using an automatic surface tension meter (product name “DY-300”) manufactured by Kyowa Interface Science Co., Ltd. A surface tension of CTFA is 36.5 mN/m. […]
With regard to a product in which the content of the surfactant is not 100% by mass (for example, a product containing a solvent other than the surfactant), the content of the surfactant is adjusted to 100% by mass, and the surface tension is measured using the surfactant alone. […]
In Tables 1 to 10, “Polyfunctional monomer/polymerizable surfactant” indicates the mass ratio of the content of the polyfunctional monomer to the content of the polymerizable surfactant. […] The surface tension reduction relative to CTFA was calculated based on the following expression.

| Compound | Surface tension of CTFA |
| --- | --- |
| C=CC(=O)OCC1(CC)COCOC1 [CTFA, cyclic trimethylolpropane formal acrylate] | 36.5 mN/m |

experiment: Specific gravity of polymerizable monomer (gravimeter); format: physicochemical; details: not given
Description: Among these, the polymerizable monomer preferably includes a polymerizable monomer having a specific gravity of 1.0 or less.
In the present disclosure, the specific gravity is measured using a gravimeter, for example, a high precision electronic gravimeter (model number “EW-300SG”, manufactured by Alfa Mirage).

| Compound | Specific gravity |
| --- | --- |
| Tricyclohexyl acrylate | 0.93 g/mL |
| C=CC(=O)OCC1(CC)COCOC1 [CTFA, cyclic trimethylolpropane formal acrylate] | 1.09 g/mL |
| C=CC(=O)OCCCCCCCCCCCCCCCC(C)C [Isostearyl acrylate] | 0.871 g/mL |
| C=CC(=O)NC(C)C [N-Isopropyl acrylamide] | 0.89 g/mL |
| C=CC(=O)OCCCCCCCCC [Nonyl acrylate] | 0.875 g/mL |
| C=CC(=O)O[C@@H]1C[C@H]2CC[C@]1(C)C2(C)C [Isobornyl acrylate] | 0.987 g/mL |
| C=CC(=O)N(C)C [N,N-Dimethylacrylamide] | 0.964 g/mL |
| C=CC(=O)OCCCCCCCC(C)C [Isodecyl acrylate] | 0.88 g/mL |
| C=CC(=O)OC1CCCCC1 [Cyclohexyl acrylate] | 0.98 g/mL |
| C=CC(=O)OCCC(C)CCOC(=O)C=C [Example 3MPDDA] | 1.03 g/mL |
| C=CC(=O)OCCOCCOCCOC(=O)C=C [TEGDA] | 1.05 g/mL |
| C=COCCOCCOCCOC=C [Triethylene glycol divinyl ether] | 1.00 g/mL |
| C=CC(=O)OCCCCCCCCCCOC(=O)C=C [Decanediol diacrylate] | 0.968 g/mL |
| C=CC(=O)OCCCCO [Example 4-HBA] | 1.04 g/mL |
| C=CC(=O)OCCCCCCCCCCCCCCCCCC [Stearyl acrylate] | 0.86 g/mL |
| C=CC(=O)OCCCCCCC(C)C [Isononyl acrylate] | 0.885 g/mL |
| C=CC(=O)OCCCCCCCC [n-Octyl acrylate] | 0.894 g/mL |
| t-Butylcyclohexyl acrylate | 0.941 g/mL |
| C=CC(=O)OCCCCCCCCCCCC [Lauryl acrylate] | 0.875 g/mL |

same assay, conditions: listed as DDDA

| Compound | Specific gravity |
| --- | --- |
| C=CC(=O)OCCCCCCCCCCOC(=O)C=C [Decanediol diacrylate] | 0.97 g/mL |

— US20240043706A1, “ACTIVE ENERGY RAY-CURABLE INKJET INK FOR BEVERAGE CONTAINER, ACTIVE ENERGY RAY-CURABLE INKJET INK SET, AND IMAGE RECORDING METHOD” (FUJIFILM CORPORATION, priority 2021, published 2024)
